This is an account of results in patent US20240059691A1 (KALVISTA PHARMACEUTICALS LIMITED, priority 2020, published 2024).

Assay type in all cases: biochemical
Assay [1] concerns the target Human Factor XIIa (Homo sapiens (Human), UniProt P00748). Kind of assay: Determination of FXIIa inhibition (fluorogenic substrate H-DPro-Phe-Arg-AFC, IC50 assay). The settings on record: substrate H-DPro-Phe-Arg-AFC at Km, 25° C.; for IC50: class scale A-G. The procedure, abridged: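 IC50 derived from % remaining activity, taken as the linear fluorescence rate over a 5 min read at 25° C. Substrate H-DPro-Phe-Arg-AFC was used at its Km (Michaelis-Menten) with human FXIIa and serial compound dilutions, 25° C.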

For assay [2], the target named is KLK1 (Homo sapiens (Human), UniProt P06870). The assay can be described thus: Determination of related protease inhibition: KLK1 (fluorogenic substrate at Km). Particulars: 25° C. The method, then:
(§1) Determination of Related Protease Inhibition
(§2) In vitro inhibition of related proteases was determined using an ([…] assay based on standard literature methods (see e.g. Shori et al., Biochem. Pharmacol., 1992, 43, 1209; Bouckaert et al., European Journal of Medicinal Chemistry 110 (2016) 181). Human serine protease enzymes Plasma Kallikrein, KLK1, FXa, Plasmin, Thrombin and Trypsin were assayed for enzymatic activity using an appropriate fluorogenic substrate at Km concentration, FXIa at fixed substrate concentration of 100 μM, and various concentrations of the test compound. Protease activity was measured by monitoring the accumulation of liberated fluorescence from the substrate over […]. The linear rate of fluorescence increase per minute was expressed as percentage (%) activity. IC50 values were calculated as the concentration of inhibitor giving 50% inhibition of the uninhibited enzyme activity (100%).

Assay [3] addresses FXa (Homo sapiens (Human), UniProt P00742). The assay can be described thus: Determination of related protease inhibition: FXa (fluorogenic substrate at Km). Particulars: 25° C. The method, then: as §1, §2
The target in assay [4] is Plasma Kallikrein (Homo sapiens (Human), UniProt P03952). Kind of assay: Determination of related protease inhibition: Plasma Kallikrein (fluorogenic substrate at Km). Particulars: 25° C., read-out: IC50 (human PKal). The essentials:
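Fluorogenic kinetic assay: human enzyme, substrate at Km, titrated inhibitor; 5 min read at 25 °C; IC50 from % of uninhibited rate.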

Sequence of KLK1 (P06870 25-262): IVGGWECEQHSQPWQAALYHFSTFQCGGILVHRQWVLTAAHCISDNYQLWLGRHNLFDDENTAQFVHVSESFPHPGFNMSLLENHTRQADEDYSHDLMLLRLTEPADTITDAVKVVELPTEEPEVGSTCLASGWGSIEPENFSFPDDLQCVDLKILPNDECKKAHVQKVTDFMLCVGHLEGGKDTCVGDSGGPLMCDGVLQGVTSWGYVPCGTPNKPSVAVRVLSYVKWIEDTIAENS
Sequence of Plasma Kallikrein (P03952 391-638): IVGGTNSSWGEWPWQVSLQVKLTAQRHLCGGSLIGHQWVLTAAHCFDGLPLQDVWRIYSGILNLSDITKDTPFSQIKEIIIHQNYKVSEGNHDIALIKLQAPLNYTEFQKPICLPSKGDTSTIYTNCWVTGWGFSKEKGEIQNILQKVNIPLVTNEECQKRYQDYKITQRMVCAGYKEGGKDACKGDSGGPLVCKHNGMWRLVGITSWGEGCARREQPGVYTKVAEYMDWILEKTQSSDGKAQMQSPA
Sequence of Plasma Kallikrein (P03952 20-390 partner): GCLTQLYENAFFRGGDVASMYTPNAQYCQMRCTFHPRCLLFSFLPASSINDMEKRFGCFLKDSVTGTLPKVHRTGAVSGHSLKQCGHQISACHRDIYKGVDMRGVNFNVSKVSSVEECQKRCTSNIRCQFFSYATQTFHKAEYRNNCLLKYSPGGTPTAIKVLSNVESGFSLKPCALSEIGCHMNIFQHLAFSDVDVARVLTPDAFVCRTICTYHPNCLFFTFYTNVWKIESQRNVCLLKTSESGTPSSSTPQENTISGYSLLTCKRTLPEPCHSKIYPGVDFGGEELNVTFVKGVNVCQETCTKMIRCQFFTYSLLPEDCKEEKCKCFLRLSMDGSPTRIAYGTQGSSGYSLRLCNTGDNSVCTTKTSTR
Sequence of Human Factor XIIa (P00748 373-615): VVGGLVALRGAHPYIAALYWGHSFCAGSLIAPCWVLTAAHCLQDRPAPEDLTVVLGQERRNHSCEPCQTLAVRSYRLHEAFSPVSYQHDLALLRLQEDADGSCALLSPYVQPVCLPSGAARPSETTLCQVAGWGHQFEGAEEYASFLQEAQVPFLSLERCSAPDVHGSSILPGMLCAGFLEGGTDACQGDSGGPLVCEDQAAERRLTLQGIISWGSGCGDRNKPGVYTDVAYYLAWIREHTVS
Sequence of FXa (P00742 235-488): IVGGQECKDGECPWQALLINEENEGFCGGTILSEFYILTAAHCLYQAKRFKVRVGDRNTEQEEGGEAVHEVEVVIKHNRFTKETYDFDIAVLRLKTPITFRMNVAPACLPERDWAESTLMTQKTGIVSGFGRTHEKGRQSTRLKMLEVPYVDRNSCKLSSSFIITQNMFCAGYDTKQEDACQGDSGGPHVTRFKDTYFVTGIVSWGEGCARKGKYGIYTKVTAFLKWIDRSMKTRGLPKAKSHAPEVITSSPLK
Sequence of FXa (P00742 41-179 partner): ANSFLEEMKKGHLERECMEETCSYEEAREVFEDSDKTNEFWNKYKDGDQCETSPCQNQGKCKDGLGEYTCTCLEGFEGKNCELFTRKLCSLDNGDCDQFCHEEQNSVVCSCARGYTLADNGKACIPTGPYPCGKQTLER

Usually IC50 stands for the concentration that inhibits the measured activity by half. Take `Nc1nccc2c(N3CCCC3c3ccc(N4CCn5c(nnc5C(F)(F)F)C4)nc3)cccc12` (racemic) [Example 10002, 5-(2-(6-(3-(Trifluoromethyl)-5,6-dihydro-[1,2,4]triazolo[4,3-a]pyrazin-7(8H)-yl)pyridin-3-yl)pyrrolidin-1-yl)isoquinolin-1-amine]: the half-inhibitory concentration (IC50) in assay [1] is 1 to 3 µM; in assay [2], 10 to 40 µM; in assay [3] it was more than 40 µM.
Take `CC1c2nnc(C(F)(F)F)n2CCN1c1ccc(CNc2cccc3c(N)nccc23)cn1` (single isomer, unassigned) [Example 1294, (R*)-N5-((6-(8-methyl-3-(trifluoromethyl)-5,6-dihydro-[1,2,4]triazolo[4,3-a]pyrazin-7(8H)-yl)pyridin-3-yl)methyl)isoquinoline-1,5-diamine]: the half-inhibitory concentration (IC50) in assay [1] is 10 to 40 µM; in assay [4] it was more than 40 µM; in assay [2], 3 to 10 µM; in assay [3], more than 40 µM.
Consider `CC1c2nnc(C(F)(F)F)n2CCN1c1ccc(CNc2cccc3c(N)nccc23)cn1` (single isomer, unassigned) [Example 1295, (S*)-N5-((6-(8-methyl-3-(trifluoromethyl)-5,6-dihydro-[1,2,4]triazolo[4,3-a]pyrazin-7(8H)-yl)pyridin-3-yl)methyl)isoquinoline-1,5-diamine], for which the IC50 is 0.01 to 0.1 µM in assay [1], 10 to 40 µM in assay [4], 3 to 10 µM in assay [2] and more than 40 µM in assay [3].
The corresponding values for `CC1CN(c2ccc(CNc3cccc4c(N)nccc34)cn2)Cc2nnc(C(F)(F)F)n21` (single isomer, unassigned) [Example 1296, (R*)-N5-((6-(5-methyl-3-(trifluoromethyl)-5,6-dihydro-[1,2,4]triazolo[4,3-a]pyrazin-7(8H)-yl)468yridine-3-yl)methyl)isoquinoline-1,5-diamine] are 1 to 3 µM, 10 to 40 µM, 3 to 10 µM and more than 40 µM.
On to `CC1CN(c2ccc(CNc3cccc4c(N)nccc34)cn2)Cc2nnc(C(F)(F)F)n21` (single isomer, unassigned) [Example 1297, (S*)-N5-((6-(5-methyl-3-(trifluoromethyl)-5,6-dihydro-[1,2,4]triazolo[4,3-a]pyrazin-7(8H)-yl)pyridin-3-yl)methyl)isoquinoline-1,5-diamine], for which the 50% inhibitory concentration (IC50) in assay [1] was 1 to 3 µM; in assay [4], more than 40 µM; in assay [2], 1 to 3 µM; in assay [3], more than 40 µM.
As to `Nc1nccc2c(N3CCCC3c3ccc(N4CCn5c(nnc5C(F)(F)F)C4)nc3)cccc12` (single isomer, unassigned) [Example 10003, (S*)-5-(2-(6-(3-(trifluoromethyl)-5,6-dihydro-[1,2,4]triazolo[4,3-a]pyrazin-7(8H)-yl)pyridin-3-yl)pyrrolidin-1-yl)isoquinolin-1-amine], the 50% inhibitory concentration (IC50) in assay [1] was 3 to 10 µM; in assay [2] it was more than 40 µM; in assay [3], more than 40 µM.
Consider `Nc1nccc2c(N3CCCC3c3ccc(N4CCn5c(nnc5C(F)(F)F)C4)nc3)cccc12` (single isomer, unassigned) [Example 10004, (R*)-5-(2-(6-(3-(trifluoromethyl)-5,6-dihydro-[1,2,4]triazolo[4,3-a]pyrazin-7(8H)-yl)pyridin-3-yl)pyrrolidin-1-yl)isoquinolin-1-amine], for which the IC50 in assay [1] is 0.3 to 1 µM; in assay [2] it was 10 to 40 µM; in assay [3] it was more than 40 µM.
The corresponding values for `Cc1nc(N2CCn3c(nnc3C(F)(F)F)C2)ccc1CNc1cccc2c(N)nccc12` [Example 1284, N5-((2-methyl-6-(3-(trifluoromethyl)-5,6-dihydro-[1,2,4]triazolo[4,3-a]pyrazin-7(8H)-yl)pyridin-3-yl)methyl)isoquinoline-1,5-diamine] are 0.3 to 1 µM, 3 to 10 µM and more than 40 µM.
The corresponding values for `CC1c2nnc(C(F)(F)F)n2CCN1c1ccc(CNc2cccc3c(N)nccc23)cn1` (centres unmarked) [Example 1285, N5-((6-(8-methyl-3-(trifluoromethyl)-5,6-dihydro-[1,2,4]triazolo[4,3-a]pyrazin-7(8H)-yl)pyridin-3-yl)methyl)isoquinoline-1,5-diamine] are 0.3 to 1 µM, 3 to 10 µM and more than 40 µM.
Turning to `Cn1ncc2c1CCN(c1ccc(CNc3cccc4c(N)nccc34)cn1)C2` [Example 1286, N5-((6-(1-methyl-1,4,6,7-tetrahydro-5H-pyrazolo[4,3-c]pyridin-5-yl)pyridin-3-yl)methyl)isoquinoline-1,5-diamine], the IC50 in assay [1] was 0.3 to 1 µM; in assay [2] it was 1 to 3 µM; in assay [3], more than 40 µM.
As to `CC1CN(c2ccc(CNc3cccc4c(N)nccc34)cn2)Cc2nnc(C(F)(F)F)n21` (centres unmarked) [Example 1287, N5-((6-(5-methyl-3-(trifluoromethyl)-5,6-dihydro-[1,2,4]triazolo[4,3-a]pyrazin-7(8H)-yl)pyridin-3-yl)methyl)isoquinoline-1,5-diamine], the IC50 in assay [1] was 1 to 3 µM; in assay [2] it was 1 to 3 µM; in assay [3], more than 40 µM.
Consider `CC(C)(O)c1cn(-c2ccc(CNc3cccc4c(N)nccc34)cn2)nn1` [Example 1291, 2-(1-(5-(((1-aminoisoquinolin-5-yl)amino)methyl)pyridin-2-yl)-1H-1,2,3-triazol-4-yl)propan-2-ol], for which the IC50 in assay [1] was 3 to 10 µM; in assay [2] it was 10 to 40 µM; in assay [3], more than 40 µM.
Turning to `N#Cc1cc(NCc2ccc(N3CCn4c(nnc4C(F)(F)F)C3)nc2)c2cc(Cl)[nH]c2n1` [Example 1292], in assay [1] (class scale H1-H3 for compounds that did not achieve 50% inhibition), the “Human FXIIa IC50 (nM): test compounds that did not achieve 50% inhibition” value is given as “H1 (>20% inhibition @ 40 μM)”. In addition, the IC50 in assay [2] and in assay [3] was more than 40 µM throughout.
On to `Nc1nccc2c(NCc3ccc(N4CCn5c(nnc5C(F)(F)F)C4)nc3C(F)(F)F)cccc12` [Example 1298, N5-((2-(trifluoromethyl)-6-(3-(trifluoromethyl)-5,6-dihydro-[1,2,4]triazolo[4,3-a]pyrazin-7(8H)-yl)pyridin-3-yl)methyl)isoquinoline-1,5-diamine], for which the IC50 in assay [1] is 1 to 3 µM; in assay [4], more than 40 µM; in assay [2], 10 to 40 µM; in assay [3], more than 40 µM.
On to `Nc1nccc2c(NCc3cnc(N4CCn5c(nnc5C(F)(F)F)C4)cc3Cl)cccc12` [Example 1299, N5-((4-Chloro-6-(3-(trifluoromethyl)-5,6-dihydro-[1,2,4]triazolo[4,3-a]pyrazin-7(8H)-yl)pyridin-3-yl)methyl)isoquinoline-1,5-diamine], for which the IC50 was 0.01 to 0.1 µM in assay [1], more than 40 µM in assay [4], 3 to 10 µM in assay [2] and more than 40 µM in assay [3].
As for `Nc1nccc2c(NCc3ccc(N4CCn5c(nnc5C(F)(F)F)C4)cc3)cccc12` [Example 1300, N5-(4-(3-(trifluoromethyl)-5,6-dihydro-[1,2,4]triazolo[4,3-a]pyrazin-7(8H)-yl)benzyl)isoquinoline-1,5-diamine], the IC50 in assay [1] was 0.1 to 0.3 µM; in assay [4], more than 40 µM; in assay [2] it was 3 to 10 µM; in assay [3], more than 40 µM.
`Nc1nccc2c(NCc3cnc(N4CCn5c(nnc5C(F)(F)F)C4)cc3C(F)(F)F)cccc12` [Example 1301, N5-((4-(trifluoromethyl)-6-(3-(trifluoromethyl)-5,6-dihydro-[1,2,4]triazolo[4,3-a]pyrazin-7(8H)-yl)pyridin-3-yl)methyl)isoquinoline-1,5-diamine]: the IC50 in assay [1] is 0.1 to 0.3 µM; in assay [4], more than 40 µM; in assay [2], 3 to 10 µM; in assay [3], more than 40 µM.
For `Cc1cc(CNc2cccc3c(N)nccc23)cnc1N1CCn2c(nnc2C(F)(F)F)C1` [Example 1302, N5-((5-methyl-6-(3-(trifluoromethyl)-5,6-dihydro-[1,2,4]triazolo[4,3-a]pyrazin-7(8H)-yl)pyridin-3-yl)methyl)isoquinoline-1,5-diamine], the IC50 in assay [1] was 10 to 40 µM; in assay [4] it was 10 to 40 µM; in assay [2], 1 to 3 µM; in assay [3], more than 40 µM.
Consider `Nc1nccc2c(NCc3ccc(N4CCn5c(nnc5C(F)(F)F)C4)cn3)cccc12` [Example 9001, N5-((5-(3-(trifluoromethyl)-5,6-dihydro-[1,2,4]triazolo[4,3-a]pyrazin-7(8H)-yl)pyridin-2-yl)methyl)isoquinoline-1,5-diamine], for which the IC50 in assay [1] is 0.1 to 0.3 µM; in assay [4] it was more than 40 µM; in assay [2], 3 to 10 µM; in assay [3] it was more than 40 µM.
In the case of `Cc1cc(N2CCn3c(nnc3C(F)(F)F)C2)nc(C)c1CNc1cccc2c(N)nccc12` [Example 9006, N5-((2,4-dimethyl-6-(3-(trifluoromethyl)-5,6-dihydro-[1,2,4]triazolo[4,3-a]pyrazin-7(8H)-yl)pyridin-3-yl)methyl)isoquinoline-1,5-diamine], the IC50 is 0.1 to 0.3 µM in assay [1], more than 40 µM in assay [4], more than 40 µM in assay [2] and more than 40 µM in assay [3].
